Measurements published in US20160235752A1, “COMPOSITIONS, METHODS OF USE, AND METHODS OF TREATMENT” (THE UNIVERSITY OF NEW ORLEANS, priority 2013, published 2016).
≈ marks a conversion by molar mass, not a printed value.

Assays:
[1] = tested on: Candida albicans (ATCC no. 10231); assay: MIC determination by broth microdilution (NCCLS), visual scoring; assay type: cell-based; settings: for MIC80: Candida albicans, ATCC10231, read-out: MIC80 C. albicans
Description: The antifungal activity of the 2,4,6-pyrimidinetrione analogs shown in Schemes 2-6 were evaluated in vitro using Candida albicans (ATCC no. 10231) and Candida glabrata (ATCC no 48435). All assays were done in accordance with NCCLS reference documents^29.
(§1) Master stock concentrations of all tested compounds were prepared to ensure that the maximum final concentration of DMSO was 1% or less. Subsequent 2-fold serial dilutions were made using sterile water to a final concentration of 1280-5.00 μg/ml. A final 10-fold dilution of each drug was made by aliquotting 0.1 mL of each drug dilution into 0.9 mL of fungal suspension in RPMI 1640 media with 10 mM HEPES buffer added (see methodology below), giving final concentrations tested in the range of 128-0.5 μg/ml.
(§2) Antifungal susceptibility studies and minimal inhibitory concentrations (MIC) values for Candida albicans (ATCC no. 10231) and Candida glabrata (ATCC no. 48435) were determined by the broth microdilution technique in accordance with NCCLS reference documents. Microdilution panels ranged from 0.5 to 128 μg/mL. All organisms were subcultured on Sabouraud agar and passaged to ensure purity and viability. The initiating inocula were prepared by picking 5-7 isolated colonies ˜1 mm in diameter from freshly prepared YM agar plates. Colonies were resuspended in sterile water, vortexed and the cell density was adjusted spectrophotometrically to the transmittance of a 0.5 McFarland standard at a wavelength of 530 nm, to yield a stock suspension of 1×10^6-5×10^6 cells/mL. The stock was allowed to hydrate for 30 minutes at room temperature. A working suspension was then made by diluting the stock 1:50 with RPMI 1640 media containing HEPES buffer. The working suspension was used for all assays. The plates were incubated at 35° C. for 48-72 hours in a humid atmosphere. Growth was scored visually. MIC values are defined as the lowest concentration of agent that prevents any discernible growth, ˜80% reduction of growth, as compared with drug-free control wells. All assays were run in parallel using either fluconazole or amphotericin B at the NCCLS recommended concentrations^29 as a drug control (Sigma-Aldrich).

[2] = tested on: Candida glabrata (ATCC no. 48435); assay: as above; assay type: cell-based; settings: for MIC80: Nakaseomyces glabratus, ATCC48435, read-out: MIC80 C. glabrata
Description: The antifungal activity of the 2,4,6-pyrimidinetrione analogs shown in Schemes 2-6 were evaluated in vitro using Candida albicans (ATCC no. 10231) and Candida glabrata (ATCC no 48435). All assays were done in accordance with NCCLS reference documents^29. The results of these screenings are summarized in Tables 1-9 as the minimal inhibitory concentrations that inhibited more than 80% fungal growth as compared to the positive controls in 1% DMSO and RPMI media. All MIC screens were done using a visual scoring method as opposed to spectroscopic methods of analysis, due to the physical properties of many of the compounds altering their absorbance spectra relative to the positive, negative and drug controls.
as §1, with “None of the compounds tested over the course of these studies were soluble in water and DMSO was used to dilute each compound tested. Master” for “Master”
as §2

[3] = Table 2, 5-Arylidene-2,4,6-pyrimidinetriones
[4] = Table 5, Schiff Bases of 5-acylpyrimidinetriones
[5] = Table 7, Phenylhydrazones of 5-Acylpyrimidinetriones
[6] = Table 4, 5,5-Dialkylated Pyrimidinetriones
[7] = Table 3, 5-Alkylated Pyrimidinetriones
[8] = Table 1, 5-Acyl-2,4,6-pyrimidinetriones, >80% growth inhibition, RPMI, 1% DMSO

CN1C(=O)C(=Cc2ccc(O)cc2)C(=O)N(C)C1=O [BA45]
MIC80 C. albicans [1, 3]: — (none of the 5-acyl-2,4,6-pyrimidinetriones, 5-alkylated pyrimidinetriones or the 5,5-dialkylated pyrimidinetriones showed antifungal activity through 125 μg/mL)
MIC80 C. glabrata [2, 3]: — (none of the 5-acyl-2,4,6-pyrimidinetriones, 5-alkylated pyrimidinetriones or the 5,5-dialkylated pyrimidinetriones showed antifungal activity through 125 μg/mL)

COc1ccc(C=C2C(=O)N(C)C(=O)N(C)C2=O)cc1 [BA50]
MIC80 C. albicans [1, 3]: — (none of the 5-acyl-2,4,6-pyrimidinetriones, 5-alkylated pyrimidinetriones or the 5,5-dialkylated pyrimidinetriones showed antifungal activity through 125 μg/mL)
MIC80 C. glabrata [2, 3]: — (none of the 5-acyl-2,4,6-pyrimidinetriones, 5-alkylated pyrimidinetriones or the 5,5-dialkylated pyrimidinetriones showed antifungal activity through 125 μg/mL)

O=C1NC(=O)C(=Cc2ccco2)C(=O)N1 [BA56]
MIC80 C. albicans [1, 3]: — (none of the 5-acyl-2,4,6-pyrimidinetriones, 5-alkylated pyrimidinetriones or the 5,5-dialkylated pyrimidinetriones showed antifungal activity through 125 μg/mL)
MIC80 C. glabrata [2, 3]: — (none of the 5-acyl-2,4,6-pyrimidinetriones, 5-alkylated pyrimidinetriones or the 5,5-dialkylated pyrimidinetriones showed antifungal activity through 125 μg/mL)

O=C1NC(=O)C(C(=O)c2ccccc2)C(=O)N1 [BA1, 5-benzoyl-pyrimidine-2,4,6-trione]
MIC80 [1]: > 125 µg/mL
MIC80 [2]: > 125 µg/mL

COc1ccc(C(=NCCCCCC(=O)O)C2C(=O)NC(=O)NC2=O)cc1 [BA35]
MIC80 C. albicans [1, 4]: — (none of the 5-acyl-2,4,6-pyrimidinetriones, 5-alkylated pyrimidinetriones or the 5,5-dialkylated pyrimidinetriones showed antifungal activity through 125 μg/mL)
MIC80 C. glabrata [2, 4]: — (none of the 5-acyl-2,4,6-pyrimidinetriones, 5-alkylated pyrimidinetriones or the 5,5-dialkylated pyrimidinetriones showed antifungal activity through 125 μg/mL)

O=C1NC(=O)C(=Cc2ccccc2O)C(=O)N1 [BA47, 5-(2-hydroxybenzylidene)pyrimidine-2,4,6-trione]
MIC80 [1]: > 125 µg/mL
MIC80 [2]: 8 µg/mL (≈ 34.5 µM)

CCCCN1C(=O)NC(=O)C(C(=NNc2ccc([N+](=O)[O-])cc2[N+](=O)[O-])c2ccccc2)C1=O (stereo not drawn) [BA31]
MIC80 C. albicans [1, 5]: — (none of the 5-acyl-2,4,6-pyrimidinetriones, 5-alkylated pyrimidinetriones or the 5,5-dialkylated pyrimidinetriones showed antifungal activity through 125 μg/mL)
MIC80 C. glabrata [2, 5]: — (none of the 5-acyl-2,4,6-pyrimidinetriones, 5-alkylated pyrimidinetriones or the 5,5-dialkylated pyrimidinetriones showed antifungal activity through 125 μg/mL)

C/C(=N\Nc1ccc([N+](=O)[O-])cc1[N+](=O)[O-])C1C(=O)N(C)C(=O)N(C)C1=O [BA27, 5-{(1E)-1-[2-(2,4-dinitrophenyl)hydrazinylidene]ethyl}-1,3-dimethylpyrimidine-2,4,6-trione]
MIC80 [1]: > 125 µg/mL
MIC80 [2]: > 125 µg/mL

CN1C(=O)C(C=O)C(=O)N(C)C1=O [BA19, 1,3-dimethyl-2,4,6-trioxohexahydropyrimidine-5-carbaldehyde]
MIC80 [1]: > 125 µg/mL
MIC80 [2]: > 125 µg/mL

CC(=Nc1ccccc1)C1C(=O)N(C)C(=O)N(C)C1=O [BA91]
MIC80 C. albicans [1, 4]: — (none of the 5-acyl-2,4,6-pyrimidinetriones, 5-alkylated pyrimidinetriones or the 5,5-dialkylated pyrimidinetriones showed antifungal activity through 125 μg/mL)
MIC80 C. glabrata [2, 4]: — (none of the 5-acyl-2,4,6-pyrimidinetriones, 5-alkylated pyrimidinetriones or the 5,5-dialkylated pyrimidinetriones showed antifungal activity through 125 μg/mL)

COc1cc(OC)c(C=C2C(=O)N(C)C(=O)N(C)C2=O)c(OC)c1 [BA52]
MIC80 C. albicans [1, 3]: — (none of the 5-acyl-2,4,6-pyrimidinetriones, 5-alkylated pyrimidinetriones or the 5,5-dialkylated pyrimidinetriones showed antifungal activity through 125 μg/mL)
MIC80 C. glabrata [2, 3]: — (none of the 5-acyl-2,4,6-pyrimidinetriones, 5-alkylated pyrimidinetriones or the 5,5-dialkylated pyrimidinetriones showed antifungal activity through 125 μg/mL)

CN(C)c1ccc(CC2(CCCc3ccccc3)C(=O)NC(=O)NC2=O)cc1 [BA72]
MIC80 C. albicans [1, 6]: — (none of the 5-acyl-2,4,6-pyrimidinetriones, 5-alkylated pyrimidinetriones or the 5,5-dialkylated pyrimidinetriones showed antifungal activity through 125 μg/mL)
MIC80 C. glabrata [2, 6]: — (none of the 5-acyl-2,4,6-pyrimidinetriones, 5-alkylated pyrimidinetriones or the 5,5-dialkylated pyrimidinetriones showed antifungal activity through 125 μg/mL)

CC(=Nc1ccc(O)cc1)C1C(=O)NC(=O)NC1=O [BA87]
MIC80 C. albicans [1, 4]: — (none of the 5-acyl-2,4,6-pyrimidinetriones, 5-alkylated pyrimidinetriones or the 5,5-dialkylated pyrimidinetriones showed antifungal activity through 125 μg/mL)
MIC80 C. glabrata [2, 4]: — (none of the 5-acyl-2,4,6-pyrimidinetriones, 5-alkylated pyrimidinetriones or the 5,5-dialkylated pyrimidinetriones showed antifungal activity through 125 μg/mL)

CN1C(=O)C(=Cc2ccc(O)cc2O)C(=O)N(C)C1=O [BA48]
MIC80 C. albicans [1, 3]: — (none of the 5-acyl-2,4,6-pyrimidinetriones, 5-alkylated pyrimidinetriones or the 5,5-dialkylated pyrimidinetriones showed antifungal activity through 125 μg/mL)
MIC80 C. glabrata [2, 3]: 2 µg/mL (≈ 7.24 µM)

O=C1NC(=O)N(c2ccccc2)C(=O)C1=Cc1ccc(O)cc1 [BA46]
MIC80 C. albicans [1, 3]: — (none of the 5-acyl-2,4,6-pyrimidinetriones, 5-alkylated pyrimidinetriones or the 5,5-dialkylated pyrimidinetriones showed antifungal activity through 125 μg/mL)
MIC80 C. glabrata [2, 3]: — (none of the 5-acyl-2,4,6-pyrimidinetriones, 5-alkylated pyrimidinetriones or the 5,5-dialkylated pyrimidinetriones showed antifungal activity through 125 μg/mL)

O=C1NC(=O)C(CCCc2ccccc2)C(=O)N1 [BA66]
MIC80 C. albicans [1, 7]: — (none of the 5-acyl-2,4,6-pyrimidinetriones, 5-alkylated pyrimidinetriones or the 5,5-dialkylated pyrimidinetriones showed antifungal activity through 125 μg/mL)
MIC80 C. glabrata [2, 7]: — (none of the 5-acyl-2,4,6-pyrimidinetriones, 5-alkylated pyrimidinetriones or the 5,5-dialkylated pyrimidinetriones showed antifungal activity through 125 μg/mL)

CN1C(=O)C(C(=NNc2ccc([N+](=O)[O-])cc2[N+](=O)[O-])c2ccc(O)cc2)C(=O)N(C)C1=O [BA34]
MIC80 C. albicans [1, 5]: — (none of the 5-acyl-2,4,6-pyrimidinetriones, 5-alkylated pyrimidinetriones or the 5,5-dialkylated pyrimidinetriones showed antifungal activity through 125 μg/mL)
MIC80 C. glabrata [2, 5]: — (none of the 5-acyl-2,4,6-pyrimidinetriones, 5-alkylated pyrimidinetriones or the 5,5-dialkylated pyrimidinetriones showed antifungal activity through 125 μg/mL)

CN1C(=O)C(C=Nc2ccc(O)cc2)C(=O)N(C)C1=O [BA79]
MIC80 C. albicans [1, 4]: — (none of the 5-acyl-2,4,6-pyrimidinetriones, 5-alkylated pyrimidinetriones or the 5,5-dialkylated pyrimidinetriones showed antifungal activity through 125 μg/mL)
MIC80 C. glabrata [2, 4]: — (none of the 5-acyl-2,4,6-pyrimidinetriones, 5-alkylated pyrimidinetriones or the 5,5-dialkylated pyrimidinetriones showed antifungal activity through 125 μg/mL)

O=C1NC(=O)C(C(=O)c2cc([N+](=O)[O-])cc([N+](=O)[O-])c2)C(=O)N1 [BA8]
MIC80 C. albicans [1, 8]: — (none of the 5-acyl-2,4,6-pyrimidinetriones, 5-alkylated pyrimidinetriones or the 5,5-dialkylated pyrimidinetriones showed antifungal activity through 125 μg/mL)
MIC80 C. glabrata [2, 8]: — (none of the 5-acyl-2,4,6-pyrimidinetriones, 5-alkylated pyrimidinetriones or the 5,5-dialkylated pyrimidinetriones showed antifungal activity through 125 μg/mL)

O=CC1C(=O)NC(=O)NC1=O [BA18]
MIC80 C. albicans [1, 8]: — (none of the 5-acyl-2,4,6-pyrimidinetriones, 5-alkylated pyrimidinetriones or the 5,5-dialkylated pyrimidinetriones showed antifungal activity through 125 μg/mL)
MIC80 C. glabrata [2, 8]: — (none of the 5-acyl-2,4,6-pyrimidinetriones, 5-alkylated pyrimidinetriones or the 5,5-dialkylated pyrimidinetriones showed antifungal activity through 125 μg/mL)

O=C1NC(=O)C(C2CCCCC2)C(=O)N1 [BA62]
MIC80 C. albicans [1, 7]: — (none of the 5-acyl-2,4,6-pyrimidinetriones, 5-alkylated pyrimidinetriones or the 5,5-dialkylated pyrimidinetriones showed antifungal activity through 125 μg/mL)
MIC80 C. glabrata [2, 7]: — (none of the 5-acyl-2,4,6-pyrimidinetriones, 5-alkylated pyrimidinetriones or the 5,5-dialkylated pyrimidinetriones showed antifungal activity through 125 μg/mL)
